Like-named read-outs stand apart in the source and are kept apart here.

In one test the target is MNK1 (Homo sapiens (Human), UniProt Q9BUB5). Put plainly: MNK Biochemical Enzymatic Assay (ADP-Glo), MNK1. As for the experimental part:
(§1) Compounds are screened for MNK inhibition using the ADP-Glo kinase assay kit (Promega, catalogue No. V9101). All kinase reactions are performed in Reaction Buffer E (15 mM HEPES pH7.4, 20 mM NaCl, 1 mM EGTA, 10 mM MgCl2, 0.1 mg/ml BGG, and 0.02% Tween-20). […] Final DMSO concentration in each reaction is 1%.
(§2) Kinase reactions are carried out in 96-well half-area white flat-bottom polystyrene plates in a final volume of 25 μl. MNK1/2 enzymes are pre-incubated with compound and peptide substrate for 5 minutes prior to the addition of ATP. After the addition of ATP, kinase reactions are incubated at room temperature for 40 minutes. Reactions are subsequently stopped by the addition of 25 μl of ADP-Glo Reagent and incubating for an additional 40 minutes. The final luminescent signal used for kinase activity readout is produced by the addition of 45 μl of Kinase Detection Reagent (ADP-Glo kit, Promega) and incubating for 40 minutes.
On the technique in general: In ADP-Glo the light output rises with the ADP produced.

The next test concerns the target MNK2 (Homo sapiens (Human), UniProt Q9HBH9). Put plainly: MNK Biochemical Enzymatic Assay (ADP-Glo), MNK2. To be noted: 3 nM recombinant MNK2, 50 μM substrate peptide, 10 μM ATP. As to the method: as §1, §2
A further test has as its system Phosphorylated eIF4E. Kind of test: peIF4E Signaling Cellular Assay (CisBio peIF4E HTRF). To be noted: cells incubated with compound for 2 hrs at 37° C., 12-point curve. The test is classed as cell-based. As to the method: Phosphorylated eIF4E is assayed using the CisBio peIF4E HTRF® assay kit (CisBio, catalogue No. 64EF4PEG). Cells are plated in 96-well tissue-culture treated plate in appropriate growth medium (90 μL). Compounds (10×) are diluted using 3-fold serial dilutions in cell culture medium and added to cells. Plates are incubated for 2 hrs at 37° C. The cell supernatant is carefully removed either by aspirating supernatant or by flicking the plate. Immediately 50 μL of supplemented lysis buffer (1×) is added and incubated for at least 30 minutes at room temperature under shaking. After homogenization by pipeting up and down, 16 μL of cell lysate is transferred from the 96-well cell-culture plate to a 384-well small volume white plate. 4 μL of premixed antibody solutions (vol/vol) is prepared in the detection buffer and added. The plate is covered with a plate sealer and incubated overnight at room temperature. The fluorescence emissions at two different wavelengths are read (665 nm and 620 nm) on a Wallac Victor2. Emission ratios are converted into percent inhibitions and imported into GraphPad Prism software. […] IC50 values are determined using a nonlinear regression model available in GraphPad Prism 5.
(In general: Time-resolved FRET reads energy transfer from a long-lived donor to a nearby acceptor.)

Where [1] appears, read: 10 nM recombinant MNK1, 100 μM substrate peptide, 300 μM ATP, read-out: IC50 Mnk1.

Chain of MNK2 (Q9HBH9 whole entry): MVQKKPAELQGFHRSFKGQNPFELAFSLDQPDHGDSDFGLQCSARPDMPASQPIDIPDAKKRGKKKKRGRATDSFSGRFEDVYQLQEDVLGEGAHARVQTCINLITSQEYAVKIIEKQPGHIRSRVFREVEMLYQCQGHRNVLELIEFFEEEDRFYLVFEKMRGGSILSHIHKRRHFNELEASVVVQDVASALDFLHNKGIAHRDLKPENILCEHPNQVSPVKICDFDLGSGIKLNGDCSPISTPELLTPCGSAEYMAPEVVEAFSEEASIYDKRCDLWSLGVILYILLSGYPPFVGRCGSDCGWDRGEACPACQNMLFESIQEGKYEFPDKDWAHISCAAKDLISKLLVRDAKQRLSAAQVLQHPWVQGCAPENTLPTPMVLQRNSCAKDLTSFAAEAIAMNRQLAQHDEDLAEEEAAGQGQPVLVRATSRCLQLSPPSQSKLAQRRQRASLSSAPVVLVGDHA
Chain of MNK1 (Q9BUB5 whole entry): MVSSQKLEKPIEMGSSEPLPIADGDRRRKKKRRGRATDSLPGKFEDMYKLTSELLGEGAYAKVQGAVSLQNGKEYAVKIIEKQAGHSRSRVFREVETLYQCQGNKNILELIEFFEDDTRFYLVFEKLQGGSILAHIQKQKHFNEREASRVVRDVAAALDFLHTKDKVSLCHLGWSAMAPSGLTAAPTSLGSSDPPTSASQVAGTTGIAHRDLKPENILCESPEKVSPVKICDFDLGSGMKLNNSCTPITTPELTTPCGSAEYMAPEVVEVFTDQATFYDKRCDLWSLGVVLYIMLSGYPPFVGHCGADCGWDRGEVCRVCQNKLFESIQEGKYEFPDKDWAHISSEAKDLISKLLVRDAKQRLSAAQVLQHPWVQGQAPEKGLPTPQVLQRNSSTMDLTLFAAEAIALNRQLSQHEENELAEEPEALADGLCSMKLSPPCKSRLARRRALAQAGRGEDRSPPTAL

As for `O=C1NCc2cc(Nc3ncnc4[nH]cnc34)ccc21` [Cpd. No. 1, 5-((9H-purin-6-yl)amino)isoindolin-1-one], the IC50 at MNK1 (setting [1]) is 10 to 100 nM.

As to `CN1Cc2cc(Nc3ncnc4[nH]cnc34)ccc2C1=O` [Cpd. No. 2, 5-((9H-purin-6-yl)amino)-2-methylisoindolin-1-one], the IC50 at MNK1 (setting [1]) lay in the range of 10 to 100 nM.

`O=C1NCc2cc(Nc3ccncn3)ccc21` [Cpd. No. 3, 5-(pyrimidin-4-ylamino)isoindolin-1-one]: the IC50 at MNK1 (setting [1]) lay in the range of 100 to 10000 nM.

Regarding `O=C1NCc2cc(Nc3cc(Cl)ncn3)ccc21` [Cpd. No. 4, 5-((6-chloropyrimidin-4-yl)amino)isoindolin-1-one], the IC50 at MNK1 (setting [1]) fell in the range of 100 to 10000 nM.

For the compound `O=C1CCc2cc(Nc3ccncn3)ccc21` [Cpd. No. 5, 5-(pyrimidin-4-ylamino)-2,3-dihydro-1H-inden-1-one], the IC50 at MNK1 (setting [1]) fell in the range of 100 to 10000 nM.

The compound `Cn1cc(Nc2cc(Nc3ccc4c(c3)CNC4=O)ncn2)cn1` [Cpd. No. 6, 5-((6-((1-methyl-1H-pyrazol-4-yl)amino)pyrimidin-4-yl)amino)isoindolin-1-one] registered an IC50 against MNK1 of 10 to 100 nM.

On to `CC1NC(=O)c2ccc(Nc3ccncn3)cc21` (centres unmarked) [Cpd. No. 8, 3-methyl-5-(pyrimidin-4-ylamino)isoindolin-1-one], for which the IC50 at MNK1 (setting [1]) is 10 to 100 nM; on MNK2, 10 to 100 nM; in the test with Phosphorylated eIF4E, 1000 to 100000 nM.

As to `O=C1NCCc2cc(Nc3ccncn3)ccc21` [Cpd. No. 10, 6-(pyrimidin-4-ylamino)-3,4-dihydroisoquinolin-1(2H)-one], the IC50 on MNK1 (setting [1]) is 10 to 100 nM; at MNK2, 10 to 100 nM; in the test with Phosphorylated eIF4E it was 1000 to 100000 nM.

As to `CC(=O)Nc1cc(Nc2ccc3c(c2)CNC3=O)ncn1` [Cpd. No. 11, N-(6-((1-oxoisoindolin-5-yl)amino)pyrimidin-4-yl)acetamide], the IC50 on MNK1 (setting [1]) was below 10 nM; at MNK2, 10 to 100 nM; in the test with Phosphorylated eIF4E it was 1000 to 100000 nM.

As for `O=C1NCc2cc(Nc3cc(NC(=O)C4CC4)ncn3)ccc21` [Cpd. No. 12, N-(6-((1-oxoisoindolin-5-yl)amino)pyrimidin-4-yl)cyclopropanecarboxamide], the IC50 at MNK1 (setting [1]) was below 10 nM; on MNK2 it was below 10 nM; in the test on Phosphorylated eIF4E, 50 to 1000 nM.

For `CC(C)C1NC(=O)c2ccc(Nc3ccncn3)cc21` (centres unmarked) [Cpd. No. 13, 3-isopropyl-5-(pyrimidin-4-ylamino)isoindolin-1-one], the figures for the IC50 at MNK1 (setting [1]), at MNK2 and in the test with Phosphorylated eIF4E were 10 to 100 nM, 10 to 100 nM and 1000 to 100000 nM, respectively.

On to `CC1(C)NC(=O)c2ccc(Nc3ccncn3)cc21` [Cpd. No. 15, 3,3-dimethyl-5-(pyrimidin-4-ylamino)isoindolin-1-one], for which the IC50 on MNK1 (setting [1]) is 100 to 10000 nM; at MNK2 it was 10 to 100 nM; in the test with Phosphorylated eIF4E it was 1000 to 100000 nM.

`CC1NC(=O)c2ccc(Nc3cc(NC(=O)C4CC4)ncn3)cc21` (centres unmarked) [Cpd. No. 17, N-(6-((3-methyl-1-oxoisoindolin-5-yl)amino)pyrimidin-4-yl)cyclopropanecarboxamide]: the IC50 is below 10 nM at MNK1 (setting [1]), below 10 nM at MNK2 and 50 to 1000 nM with Phosphorylated eIF4E.

As to `CC1CC(=O)c2ccc(Nc3cc(NC(=O)C4CC4)ncn3)cc21` (centres unmarked) [Cpd. No. 19, N-(6-((3-methyl-1-oxo-2,3-dihydro-1H-inden-5-yl)amino)pyrimidin-4-yl)cyclopropanecarboxamide], the IC50 on MNK1 (setting [1]) was below 10 nM; at MNK2, 10 to 100 nM; in the test on Phosphorylated eIF4E it was 50 to 1000 nM.

`CC1CNC(=O)c2ccc(Nc3ccncn3)cc21` (centres unmarked) [Cpd. No. 22, 4-methyl-6-(pyrimidin-4-ylamino)-3,4-dihydroisoquinolin-1(2H)-one]: the IC50 on MNK1 (setting [1]) is 100 to 10000 nM; at MNK2, 10 to 100 nM; in the test with Phosphorylated eIF4E, 1000 to 100000 nM.

With `NC1CC(=O)c2ccc(Nc3ccncn3)cc21` (centres unmarked) [Cpd. No. 28, 3-amino-5-(pyrimidin-4-ylamino)-2,3-dihydro-1H-inden-1-one], at MNK2, the IC50 was in the range of 100 to 10000 nM.

Turning to `O=C1NC2CC2c2cc(Nc3ccncn3)ccc21` (centres unmarked) [Cpd. No. 29, 6-(pyrimidin-4-ylamino)-1,1a,2,7b-tetrahydro-3H-cyclopropa[c]isoquinolin-3-one], the 50% inhibitory concentration (IC50) on MNK2 is 100 to 10000 nM; in the test on Phosphorylated eIF4E it was 1000 to 100000 nM.

On to `CC1(N)CC(=O)c2ccc(Nc3ccncn3)cc21` (centres unmarked) [Cpd. No. 30, 3-amino-3-methyl-5-(pyrimidin-4-ylamino)-2,3-dihydro-1H-inden-1-one], for which, on MNK2, the IC50 was 100 to 10000 nM.

For the compound `CC1(N)CNC(=O)c2ccc(Nc3ccncn3)cc21` (centres unmarked) [Cpd. No. 32, 4-amino-4-methyl-6-(pyrimidin-4-ylamino)-3,4-dihydroisoquinolin-1(2H)-one], the IC50 on MNK2 lay within 100 to 10000 nM.

As to `O=C1NC(c2ccsc2)c2cc(Nc3ccncn3)ccc21` (centres unmarked) [Cpd. No. 37, 5-(pyrimidin-4-ylamino)-3-(thiophen-3-yl)isoindolin-1-one], the IC50 on MNK1 (setting [1]) and on MNK2 was below 10 nM each time.

Turning to `CC1NC(=O)c2ccc(Nc3ncnc4c3CC(=O)N4)cc21` (centres unmarked) [Cpd. No. 41, 4-[(3-methyl-1-oxo-isoindolin-5-yl)amino]-5,7-dihydropyrrolo[2,3-d]pyrimidin-6-one], on MNK2, the IC50 was 100 to 10000 nM.

Regarding `Cc1cc(Nc2cc(N)ncn2)cc2c1C(=O)NC2(C)C` [Cpd. No. 44, 5-((6-aminopyrimidin-4-yl)amino)-3,3,7-trimethylisoindolin-1-one], the values for the IC50 at MNK2 and in the test with Phosphorylated eIF4E were below 10 nM and 50 to 1000 nM, respectively.

As for `O=C1NC2(CCCCC2)c2cc(Nc3ccncn3)cc(Cl)c21` [Cpd. No. 46, 4′-chloro-6′-(pyrimidin-4-ylamino)spiro[cyclohexane-1,1′-isoindolin]-3′-one], the IC50 at MNK2 was below 10 nM; in the test with Phosphorylated eIF4E, below 50 nM.

Turning to `Cc1cc(Nc2cc(N)ncn2)cc2c1C(=O)NC21CCCC1` [Cpd. No. 47, 6′-((6-aminopyrimidin-4-yl)amino)-4′-methylspiro[cyclopentane-1,1′-isoindolin]-3′-one], the IC50 was below 10 nM at MNK2 and 50 to 1000 nM in the test on Phosphorylated eIF4E.

Take `Nc1cc(Nc2cc(Cl)c3c(c2)C2(CCCCC2)NC3=O)ncn1` [Cpd. No. 48, 6′-((6-aminopyrimidin-4-yl)amino)-4′-chlorospiro[cyclohexane-1,1′-isoindolin]-3′-one]: the IC50 at MNK2 is below 10 nM; in the test with Phosphorylated eIF4E, below 50 nM.

For `NC(=O)c1ccc2c(c1)ncn2-c1cc(N)ncn1` [Cpd. No. 49, 1-(6-aminopyrimidin-4-yl)-1H-benzo[d]imidazole-5-carboxamide], the IC50 on MNK2 lay within 10 to 100 nM; in the test with Phosphorylated eIF4E it was 1000 to 100000 nM.

Consider `CC1(C)NC(=O)c2c(Cl)cc(Nc3ncnc(N)c3Cl)cc21` [Cpd. No. 50, 5-((6-amino-5-chloropyrimidin-4-yl)amino)-7-chloro-3,3-dimethylisoindolin-1-one], for which the IC50 at MNK2 was below 10 nM; with Phosphorylated eIF4E, below 50 nM.

As for `Cc1cc(Nc2cc(N)ncn2)cc2c1C(=O)NC21CCCCC1` [Cpd. No. 51, 6′-((6-aminopyrimidin-4-yl)amino)-4′-methylspiro[cyclohexane-1,1′-isoindolin]-3′-one], the IC50 on MNK2 was below 10 nM; with Phosphorylated eIF4E, below 50 nM.

With `CC1(C)NC(=O)c2ccc(Nc3cc(N)ncn3)c(Cl)c21` [Cpd. No. 52, 5-((6-aminopyrimidin-4-yl)amino)-4-chloro-3,3-dimethylisoindolin-1-one], the IC50 on MNK2 was below 10 nM; with Phosphorylated eIF4E, 1000 to 100000 nM.

Regarding `CCc1c(N)ncnc1Nc1cc(C)c2c(c1)C1(CCCCC1)NC2=O` [Cpd. No. 53, 6′-((6-amino-5-ethylpyrimidin-4-yl)amino)-4′-methylspiro[cyclohexane-1,1′-isoindolin]-3′-one], the IC50 was below 10 nM on MNK2 and 50 to 1000 nM with Phosphorylated eIF4E.

As for `COc1cncnc1Nc1cc(C)c2c(c1)C1(CCCCC1)NC2=O` [Cpd. No. 54, 6′-((5-methoxypyrimidin-4-yl)amino)-4′-methylspiro[cyclohexane-1,1′-isoindolin]-3′-one], the IC50 on MNK2 is below 10 nM; with Phosphorylated eIF4E, below 50 nM.

Consider `CCc1cncnc1Nc1cc(C)c2c(c1)C1(CCCCC1)NC2=O` [Cpd. No. 56, 6′-((5-ethylpyrimidin-4-yl)amino)-4′-methylspiro[cyclohexane-1,1′-isoindolin]-3′-one], for which the IC50 on MNK2 is 10 to 100 nM; in the test on Phosphorylated eIF4E it was 50 to 1000 nM.

In the case of `Nc1ncnc(Nc2cc(Cl)c3c(c2)C2(CCCCC2)NC3=O)c1Cl` [Cpd. No. 59, 6′-((6-amino-5-chloropyrimidin-4-yl)amino)-4′-chlorospiro[cyclohexane-1,1′-isoindolin]-3′-one], the IC50 was below 10 nM at MNK2 and below 50 nM in the test with Phosphorylated eIF4E.

For orientation: IC50 means the concentration that inhibits the measured activity by half.

The record behind these values is patent publication US10112955B2, “Isoindoline, azaisoindoline, dihydroindenone and dihydroazaindenone inhibitors of Mnk1 and Mnk2” (eFFECTOR THERAPEUTICS, INC., priority 2015, dated 2018).
